“Also recorded” adds a separate entry of the source.
Assays:
[1] = system: H3K4me3; experiment: H3K4me3 ChIP-seq in GSC8; type: cell-based, human; details: for H3K4me3 peak width / level: naïve GSCs, KDM5-C70 2.5 μM or GSKJ4 1.5 μM, 4 d
Experimental: Chromatin Immunoprecipitation (ChIP) was performed as previously described (Suvà et al., 2014). Briefly, formaldehyde-fixed cells were lysed and sheared (Branson […]) on wet ice. The sheared chromatin was cleared and incubated overnight at 4° C. with the following antibodies: H3K4me3 (Millipore, 07-473, Lot 2207275), H3K27me3 (Millipore, 07-449, lot 2382150), H3K27ac (Active Motif, 39133 lot 25812006), RBPJ (Abcam, ab25949, lot GR169397-1), and cleaved Notch1 (CST, 4147, lot #4). Antibody-chromatin complexes were immunoprecipitated with protein G magnetic Dynal beads (Life Technologies), washed, eluted, reverse crosslinked, and treated with RNAse A followed by proteinase K. ChIP DNA was purified using Ampure XP beads (Beckmann Coulter) and then used to prepare sequencing libraries for sequencing with the Next-Seq Illumina genome analyzer. Reads were aligned to hg19 using BWA (Li and Durbin, 2009) and identical ChIP-seq sequence reads were collapsed to avoid PCR duplicates. In order to avoid possible saturation biases, reads were downsampled to approximately similar numbers ( 20 million reads). Peaks were called using HOMER v4.6 (Heinz et al., 2010) using matched inputs with the following parameters: H3K4me3, -histone -tagThreshold 30; H3K27ac, -histone -tagThreshold 50; H3K27me3, -histone -size 3000 -[…] 0.1; Notch1 ICD, -factor; and RBPJ, -factor. […] Quantification of the H3K27me3 ChIP-seq signals, using fore- and background normalization, was essentially performed as outlined in (Zhu et al., 2013) with few modifications. To exclude genomic regions with potential copy number aberrations, read counts derived from whole cell extracts ChIP-seq within 5 kb genomic windows were quantified. Read counts were performed using interval overlap functions of the R package Genomic Ranges (Lawrence et al., 2013). To compute normalization constants, all genomic windows with read counts equal to 0 or greater than 3 standard deviations from the mean were excluded from the analysis. For a given H3K27me3 ChIP-seq data set, the background constant was estimated as the median of the read count distribution within 5 kb windows overlapping the 5% most highly expressed genes, as active genes are considered to be devoid of repressive chromatin modifications. The foreground signal was estimated as the median of the read count distribution within 5 kb windows centered around each called peak and subtracting the background signal. To quantify H3K27me3 signal within 5 kb regions of interest, the background signal was subtracted from the corresponding read count and the resulting value divided by the foreground signal. […] In order to quantify ChIP-seq intensities within genomic regions of different sizes (e.g. genes), the obtained normalization constants were scaled accordingly. […]

[2] = system: GSC8^12d; experiment: Cell growth assay (CELLTITER-GLO), GSC8 treated 12 days with dasatinib; type: cell-based, human; details: 4 day treatment
Experimental: (§1) Patient-derived GSC culture lines were maintained in Neurobasal medium (Life Technologies) supplemented with N2/B27, penicillin/streptomycin (Life Technologies), GlutaMAX (Life Technologies), recombinant human EGF (20 ng/mL, R & D systems), and recombinant human FGF2 (20 ng/mL, R & D systems). For drug persister cultures, fresh compound and media were replenished every 4-6 days.
(§2) Freshly dissociated single cell suspensions were plated (96-well) in triplicate or quadruplicate at 1,000 to 10,000 cells/well for testing. For 4 day growth assays, […]-GLO® Luminescent Cell Viability Assay (Promega) was added to wells and end point luminescence was measured (BioTek Synergy HT Platereader). For 12 day assays, 1× compound in media was added at day 4 and all wells were replated with fresh media and compound at day 8 before viability was measured at day 12. For each inhibitor, n=3 replicates were used for each concentration and was repeated in two to four independent experiments.

[3] = system: GSC8^Per; experiment: Cell growth assay (CELLTITER-GLO), dasatinib persisters GSC8^Per; type: cell-based, human; details: for sensitivity / effect on cell growth (dose-response): 4 day treatment, GSC8^Per (>8 weeks dasatinib); for growth, 12 day treatment: GSC8^Per vs GSC8 naïve
Experimental: as §1, §2

[4] = system: GSC8 PD0325901^Per; experiment: Cell growth assay ([…]-GLO), MEK inhibitor persisters; type: cell-based, human; details: 4 day treatment; persisters from sustained MEK inhibition
Experimental: as §1, §2

[5] = system: GSC8; experiment: Cell growth assay ([…]-GLO), GSC8 naïve; type: cell-based, human; details: for sensitivity / effect on cell growth (dose-response): 4 day treatment, GSC8 naïve
Experimental: as §1, §2

[6] = system: H3K27me3; experiment: H3K27me3 ChIP-seq in GSC8; type: cell-based, human
Experimental: Chromatin Immunoprecipitation (ChIP) was performed as previously described (Suvà et al., 2014). Briefly, formaldehyde-fixed cells were lysed and sheared (Branson […]) on wet ice. The sheared chromatin was cleared and incubated overnight at 4° C. with the following antibodies: H3K4me3 (Millipore, 07-473, Lot 2207275), H3K27me3 (Millipore, 07-449, lot 2382150), H3K27ac (Active Motif, 39133 lot 25812006), RBPJ (Abcam, ab25949, lot GR169397-1), and cleaved Notch1 (CST, 4147, lot #4). Antibody-chromatin complexes were immunoprecipitated with protein G magnetic Dynal beads (Life Technologies), washed, eluted, reverse crosslinked, and treated with RNAse A followed by proteinase K. ChIP DNA was purified using Ampure XP beads (Beckmann Coulter) and then used to prepare sequencing libraries for sequencing with the Next-Seq Illumina genome analyzer. Reads were aligned to hg19 using BWA (Li and Durbin, 2009) and identical ChIP-seq sequence reads were collapsed to avoid PCR duplicates. In order to avoid possible saturation biases, reads were downsampled to approximately similar numbers ( 20 million reads). […] Quantification of the H3K27me3 ChIP-seq signals, using fore- and background normalization, was essentially performed as outlined in (Zhu et al., 2013) with few modifications. To exclude genomic regions with potential copy number aberrations, read counts derived from whole cell extracts ChIP-seq within 5 kb genomic windows were quantified. Read counts were performed using interval overlap functions of the R package Genomic Ranges (Lawrence et al., 2013). To compute normalization constants, all genomic windows with read counts equal to 0 or greater than 3 standard deviations from the mean were excluded from the analysis. For a given H3K27me3 ChIP-seq data set, the background constant was estimated as the median of the read count distribution within 5 kb windows overlapping the 5% most highly expressed genes, as active genes are considered to be devoid of repressive chromatin modifications. […]

[7] = system: GSC8; experiment: Flow cytometry for Ki67 and EdU incorporation in GSC8; details: 1 μM
[8] = system: KDMs; experiment: qRT-PCR of KDM gene expression in GSC8; type: cell-based, human; details: 48 hr drug treatment in GSC8
Experimental: Whole RNA was extracted from 1-3×10^6 cells using the QIAGEN RNeasy kit according to the manufacturer's protocol. For qRT-PCR, total RNA was reverse-transcribed into cDNA (High Capacity cDNA Reverse Transcriptase Kit, Applied Biosystems) and qRT-PCR amplification was performed using fast SYBR Green Master Mix (Life Technologies) with specific PCR primers for genes of interest and 18S as an endogenous control. Relative quantification for each target was performed using the comparative Ct method (Applied Biosystems). For RNA-seq library preparation, Poly(A)^+ RNA was enriched using magnetic oligo(dT)-beads (Life Technologies) and libraries were prepared as previously described (Gifford et al., 2013). Sequences for qRT-PCR primers used are listed at Table 3.

Compound: CCOC(=O)CCNc1cc(N2CCc3ccccc3CC2)nc(-c2ccccn2)n1 [GSKJ4]
- H3K4me3 peak width / level [1]: did not significantly increase H3K4me3
- sensitivity / effect on cell growth (dose-response) [2]: preferentially sensitive; also recorded: significantly compromised viability
- sensitivity / effect on cell growth (dose-response) [3]: preferentially sensitive; also recorded: significantly compromised viability
- sensitivity / effect on cell growth (dose-response) [4]: preferentially sensitive
- sensitivity / effect on cell growth (dose-response) [5]: well tolerated
- rescue of H3K27me3 loss associated with dasatinib treatment ([6]; GSC8^12d, GSKJ4 1.5 μM, 8 d, after 4 days of dasatinib): rescued the dramatic H3K27me3 loss
- effect on pre-existing H3K27me3 landscape ([6]; naïve GSC8, 1.5 μM, 8 d): negligible effects

Compound: CCOC(=O)c1ccnc(CNCC(=O)N(CC)CCN(C)C)c1 [KDM5-C70]
- H3K4me3 peak width / level [1]: caused H3K4me3 peaks to expand; also recorded: H3K4me3 peak width increases
- rescue of H3K4me3 reduction associated with dasatinib treatment ([1]; with 4 day dasatinib): partially rescued; also recorded: significantly attenuated H3K4me3 reduction
- sensitivity / effect on cell growth (dose-response) [2]: subtle effects on proliferation
- sensitivity / effect on cell growth (dose-response) [3]: subtle effects on proliferation
- sensitivity / effect on cell growth (dose-response) [5]: subtle effects on proliferation
- effect on dasatinib dose-response curve ([5]; 4 day, GSC8 naïve simultaneously treated with KDM5-C70 2.5 μM vs vehicle): No significant effect

Compound: C[C@H](NC(=O)Cc1cc(F)cc(F)c1)C(=O)N[C@H]1N=C(c2ccccc2)c2ccccc2N(C)C1=O [Compound E]
- growth, 12 day treatment [3]: preferentially sensitive
- growth, 12 day treatment ([3]; listed as Notch inhibitor (γ-secretase)): significantly reduced
- growth, 12 day treatment ([5]; 12 day treatment, naïve GSC8): little effect

Compound: Cc1nc(Nc2ncc(C(=O)Nc3c(C)cccc3Cl)s2)cc(N2CCN(CCO)CC2)n1 [dasatinib]
- H3K4me3 at cell cycle-associated promoters ([1]; short-term dasatinib treatment): reduced
- cell cycle effect (Ki67 / EdU) ([7]; 4 d): induced cell cycle arrest and G0 induction
- Ki67^+ cells ([7]; after 4 days of dasatinib, 93% in naïve): 17%
- sensitivity / effect on cell growth (dose-response) [3]: relatively insensitive; also recorded: tolerated higher concentrations
- IC50 ([5]; Homo sapiens, 96 h): ~10 nM
- H3K27me3 peaks after drug treatment ([6]; GSC8^12d, GSC8^Per, GSC8 PD0325901^Per): strongly reduced

Compound: CCOC(=O)CCNc1cc(N2CCc3ccccc3CC2)nc(-c2cccnc2)n1 [GSKJ5]
- sensitivity / effect on cell growth (dose-response) [3]: no preferential sensitivity; also recorded: Negligible differential effects

Compound: O=C(NOC[C@H](O)CO)c1ccc(F)c(F)c1Nc1ccc(I)cc1F [PD0325901]
- sensitivity / effect on cell growth (dose-response) [5]: differentially sensitive
- KDM gene expression [8]: KDM induction; also recorded: up-regulation of numerous KDMs

Compound: CC1(COc2ccc3c(c2)ncn3-c2ccc3cccc(N4CCC(N)CC4)c3n2)COC1 [crenolanib]
- sensitivity / effect on cell growth (dose-response) [3]: relatively insensitive; also recorded: tolerated higher concentrations
- sensitivity / effect on cell growth (dose-response) [5]: preferentially sensitive

Reference: US11998540B2, “Compositions and methods for treating drug-tolerant glioblastoma” (THE GENERAL HOSPITAL CORPORATION, priority 2015, dated 2024)
